According to ChEMBL document CHEMBL5518201, “Glycan-Modified Peptides for Dual Inhibition of Human Immunodeficiency Virus Entry into Dendritic Cells and T Cells” (J Med Chem, 2024):

Test system: Human immunodeficiency virus 1
Experiment: Antiviral activity against HIV-1 pseudovirus infected in HEK293T cells transfected with DC-SIGN assessed as inhibition of viral entry into cells at 500 uM preincubated with compound for 2 hrs followed by viral addition and measured after 4 hrs by p24 ELISA relative to control
Assay type: functional
Conditions: Human immunodeficiency virus 1, HEK-293T, time 6 hrs

**Q.** With `[N-]=[N+]=NCCO[C@H]1O[C@H](CO[C@H]2O[C@H](CO)[C@@H](O)[C@H](O)[C@@H]2O[C@H]2O[C@H](CO)[C@@H](O)[C@H](O)[C@@H]2O)[C@@H](O)[C@H](O[C@H]2O[C@H](CO)[C@@H](O)[C@H](O)[C@@H]2O[C@H]2O[C@H](CO)[C@@H](O)[C@H](O)[C@@H]2O)[C@@H]1O` as the compound, how does the inhibition at 500 µM read?
**A.** The inhibition at 500 µM was 15%.
